Results on 25 compounds are retold here after patent publication US10035790B2, “RORγ modulators” (BRISTOL-MYERS SQUIBB COMPANY, priority 2012, dated 2018).

The structures appear in SMILES notation.

By IC50 is commonly meant the concentration at which inhibition is half-maximal.

This assay concerns the target T1, ligand binding domain of human RORγ (A262-S507) (Homo sapiens, UniProt P51449).
T1 construct: made in house; host or cells: E. coli
T1 sequence (P51449 262-507): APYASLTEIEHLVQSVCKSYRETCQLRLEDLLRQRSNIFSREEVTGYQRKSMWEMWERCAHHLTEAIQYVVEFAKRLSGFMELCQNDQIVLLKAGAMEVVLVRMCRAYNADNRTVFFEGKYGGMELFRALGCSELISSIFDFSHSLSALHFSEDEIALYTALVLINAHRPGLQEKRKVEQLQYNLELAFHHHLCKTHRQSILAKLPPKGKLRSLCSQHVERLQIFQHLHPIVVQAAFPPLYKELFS
Nature of the assay: General RORγ SPA binding assay (competition with [3H]25-hydroxycholesterol). To be noted: RORγ SPA binding assay, inhibition of [3H]25-hydroxycholesterol binding; read-out: IC50. An outline of the steps: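 Scintillation counts from copper His-tag SPA beads (4 mg/mL, 30 min) gave percent inhibition of radioligand binding, from which IC50 values are derived. The E. coli-expressed His-tagged domain (50 nM) is first exposed to compound for 15 min at room temperature in PBS containing 0.5% fatty acid free BSA.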
With `Cc1ncc(C(C)(O)CNc2ccnc(Cl)c2)c(C2CCN(C(=O)Cc3c(F)cccc3F)CC2)n1` (stereo not shown) [Compound D7, 1-(4-(5-(1-((2-chloropyridin-4-yl)amino)-2-hydroxypropan-2-yl)-2-methylpyrimidin-4-yl)piperidin-1-yl)-2-(2,6-difluorophenyl)ethanone], the IC50 stood at 80 nM.
Turning to `Cc1ncc(C(C)(O)CNc2cc(C(F)(F)F)ccn2)c(C2CCN(C(=O)Cc3c(F)cccc3F)CC2)n1` (stereo not shown) [Compound D8, 2-(2,6-difluorophenyl)-1-(4-(5-(2-hydroxy-1-((4-(trifluoromethyl)pyridin-2-yl)amino)propan-2-yl)-2-methylpyrimidin-4-yl)piperidin-1-yl)ethanone], the concentration for half-maximal inhibition (IC50) amounted to 105 nM.
For the compound `Cc1ccnc(NCC(C)(O)c2cnc(C)nc2C2CCN(C(=O)Cc3c(F)cccc3F)CC2)c1` (stereo not shown) [Compound D9, 2-(2,6-difluorophenyl)-1-(4-(5-(2-hydroxy-1-((4-methylpyridin-2-yl)amino)propan-2-yl)-2-methylpyrimidin-4-yl)piperidin-1-yl)ethanone], the 50% inhibitory concentration (IC50) amounted to 118 nM.
For the compound `Cc1ncc(C(C)(O)CNc2ccn(C)n2)c(C2CCN(C(=O)Cc3c(F)cccc3F)CC2)n1` (stereo not shown) [Compound D10, 2-(2,6-difluorophenyl)-1-(4-(5-(2-hydroxy-1-((1-methyl-1H-pyrazol-3-yl)amino)propan-2-yl)-2-methylpyrimidin-4-yl)piperidin-1-yl)ethanone], the half-inhibitory concentration (IC50) was 4380 nM.
In the case of `Cc1cc(C)cc(OCC(C)(O)c2cnc(C)nc2C2CCN(C(=O)Cc3c(F)cccc3F)CC2)c1` (stereo not shown) [Compound D11, 2-(2,6-Difluorophenyl)-1-(4-(5-(1-(3,5-dimethylphenoxy)-2-hydroxypropan-2-yl)-2-methylpyrimidin-4-yl)piperidin-1-yl)ethanone], the 50% inhibitory concentration (IC50) is 14.5 nM.
Regarding `Cc1ncc(C(C)(O)COc2cccc(Cl)c2)c(C2CCN(C(=O)Cc3c(F)cccc3F)CC2)n1` (stereo not shown) [Compound D12, 1-(4-(5-(1-(3-chlorophenoxy)-2-hydroxypropan-2-yl)-2-methylpyrimidin-4-yl)piperidin-1-yl)-2-(2,6-difluorophenyl)ethanone], the IC50 is 6.2 nM.
As for `Cc1ncc(C(C)(O)COc2cncc(Cl)c2)c(C2CCN(C(=O)Cc3c(F)cccc3F)CC2)n1` (stereo not shown) [Compound D13, 1-(4-(5-(1-((5-chloropyridin-3-yl)oxy)-2-hydroxypropan-2-yl)-2-methylpyrimidin-4-yl)piperidin-1-yl)-2-(2,6-difluorophenyl)ethanone], the 50% inhibitory concentration (IC50) came out at 8.9 nM.
With `Cc1ncc(C(C)(O)COc2cccnc2)c(C2CCN(C(=O)Cc3c(F)cccc3F)CC2)n1` (stereo not shown) [Compound D14, 2-(2,6-difluorophenyl)-1-(4-(5-(2-hydroxy-1-(pyridin-3-yloxy)propan-2-yl)-2-methylpyrimidin-4-yl)piperidin-1-yl)ethanone], the half-maximal inhibitory concentration (IC50) was 481 nM.
For `Cc1cc(C)cc(CCC(C)(O)c2cnc(C)nc2C2CCN(C(=O)Cc3c(F)cccc3F)CC2)c1` (stereo not shown) [Compound D15, 2-(2,6-Difluorophenyl)-1-(4-(5-(4-(3,5-dimethylphenyl)-2-hydroxybutan-2-yl)-2-methylpyrimidin-4-yl)piperidin-1-yl)ethanone] the value was 33.9 nM; for `Cc1ncc(C(C)(O)CNc2cccc(C(F)(F)F)n2)c(C2CCN(C(=O)Nc3c(F)cccc3F)CC2)n1` (stereo not shown) [Compound D16, N-(2,6-Difluorophenyl)-4-[5-(1-hydroxy-1-methyl-2-{[6-(trifluoromethyl)pyridin-2-yl]amino}ethyl)-2-methylpyrimidin-4-yl]piperidine-1-carboxamide], 12.3 nM; for `Cc1ncc(C(C)(O)CNc2ccnc(C(F)(F)F)n2)c(C2CCN(C(=O)Nc3c(F)cccc3F)CC2)n1` (stereo not shown) [Compound D17, N-(2,6-Difluorophenyl)-4-[5-(1-hydroxy-1-methyl-2-{[2-(trifluoromethyl)pyrimidin-4-yl]amino}ethyl)-2-methylpyrimidin-4-yl]piperidine-1-carboxamide], 88.8 nM.
Take `Cc1ncc(C(C)(O)CNc2ccnc(C(F)(F)F)n2)c(C2CCN(C(=O)Nc3c(F)cccc3C(F)(F)F)CC2)n1` (stereo not shown) [Compound D18, N-[2-Fluoro-6-(trifluoromethyl)phenyl]-4-[5-(1-hydroxy-1-methyl-2-{[2-(trifluoromethyl)pyrimidin-4-yl]amino}ethyl)-2-methylpyrimidin-4-yl]piperidine-1-carboxamide]: the IC50 was found to be 112 nM.
Under `Cc1ncc(C(C)(O)CN(C)c2ccnc(C(F)(F)F)n2)c(C2CCN(C(=O)Nc3c(F)cccc3F)CC2)n1` (stereo not shown) [Compound D19, N-(2,6-Difluorophenyl)-4-[5-(1-hydroxy-1-methyl-2-{methyl[2-(trifluoromethyl)pyrimidin-4-yl]amino}ethyl)-2-methylpyrimidin-4-yl]piperidine-1-carboxamide] stands 196 nM; under `Cc1ncc(C(C)(O)CN(C)c2ccnc(C(F)(F)F)n2)c(C2CCN(C(=O)Cc3c(F)cccc3F)CC2)n1` (stereo not shown) [Compound D20, 2-(4-{1-[(2,6-Difluorophenyl)acetyl]piperidin-4-yl}-2-methylpyrimidin-5-yl)-1-{methyl[2-(trifluoromethyl)pyrimidin-4-yl]amino}propan-2-ol], 72.8 nM.
Under `Cc1ncc(C(C)(O)CNc2nccc(C(F)(F)F)n2)c(C2CCN(C(=O)Nc3c(F)cccc3F)CC2)n1` (stereo not shown) [Compound D21, N-(2,6-Difluorophenyl)-4-[5-(1-hydroxy-1-methyl-2-{[4-(trifluoromethyl)pyrimidin-2-yl]amino}ethyl)-2-methylpyrimidin-4-yl]piperidine-1-carboxamide] stands 47.7 nM; under `Cc1ncc(C(C)(O)CNc2nccc(C(F)(F)F)n2)c(C2CCN(C(=O)Nc3c(F)cccc3C(F)(F)F)CC2)n1` (stereo not shown) [Compound D22, N-[2-Fluoro-6-(trifluoromethyl)phenyl]-4-[5-(1-hydroxy-1-methyl-2-{[4-(trifluoromethyl)pyrimidin-2-yl]amino}ethyl)-2-methylpyrimidin-4-yl]piperidine-1-carboxamide], 76.1 nM; under `Cc1ncc(C(C)(O)CNc2nccc(C(F)(F)F)n2)c(C2CCN(C(=O)Cc3c(F)cccc3F)CC2)n1` (stereo not shown) [Compound D23, 2-(4-{1-[(2,6-Difluorophenyl)acetyl]piperidin-4-yl}-2-methylpyrimidin-5-yl)-1-{[4-(trifluoromethyl)pyrimidin-2-yl]amino}propan-2-ol], 18.5 nM.
For the compound `Cc1ncc(C(C)(O)COc2cccc(C(F)(F)F)n2)c(C2CCN(C(=O)Cc3c(F)cccc3F)CC2)n1` (stereo not shown) [Compound D24, 2-(4-{1-[(2,6-difluorophenyl)acetyl]piperidin-4-yl}-2-methylpyrimidin-5-yl)-1-{[6-(trifluoromethyl)pyridin-2-yl]oxy}propan-2-ol], the IC50 came to 5 nM.
Take `Cc1ncc(C(C)(O)COc2cccc(C(F)(F)F)n2)c(C2CCN(C(=O)Nc3c(F)cccc3F)CC2)n1` (stereo not shown) [Compound D25, N-(2,6-difluorophenyl)-4-[5-(1-hydroxy-1-methyl-2-{[6-(trifluoromethyl)pyridin-2-yl]oxy}ethyl)-2-methylpyrimidin-4-yl]piperidine-1-carboxamide]: the half-inhibitory concentration (IC50) is 8.7 nM.
`CSc1ncc(C(C)(O)COc2cccc(C(F)(F)F)n2)c(C2CCN(C(=O)Nc3c(F)cccc3F)CC2)n1` (stereo not shown) [Compound D26, N-(2,6-Difluorophenyl)-4-[5-(1-hydroxy-1-methyl-2-{[6-(trifluoromethyl)pyridin-2-yl]oxy}ethyl)-2-(methylthio)pyrimidin-4-yl]piperidine-1-carboxamide]: the IC50 came out at 12.6 nM.
On to `CC(O)(COc1cccc(C(F)(F)F)n1)c1cnc(N)nc1C1CCN(C(=O)Nc2c(F)cccc2F)CC1` (stereo not shown) [Compound D27, 4-[2-Amino-5-(1-hydroxy-1-methyl-2-{[6-(trifluoromethyl)pyridin-2-yl]oxy}ethyl)pyrimidin-4-yl]-N-(2,6-difluorophenyl)piperidine-1-carboxamide], for which the IC50 came to 3.6 nM.
`CSc1ncc(C(C)(O)COc2ccnc(C(F)(F)F)n2)c(C2CCN(C(=O)Nc3c(F)cccc3F)CC2)n1` (stereo not shown) [Compound D28, N-(2,6-Difluorophenyl)-4-[5-(1-hydroxy-1-methyl-2-{[2-(trifluoromethyl)pyrimidin-4-yl]oxy}ethyl)-2-(methylthio)pyrimidin-4-yl]piperidine-1-carboxamide]: the half-inhibitory concentration (IC50) amounted to 14.7 nM.
For `CC(O)(COc1ccnc(C(F)(F)F)n1)c1cnc(N)nc1C1CCN(C(=O)Nc2c(F)cccc2F)CC1` (stereo not shown) [Compound D29, 4-[2-Amino-5-(1-hydroxy-1-methyl-2-{[2-(trifluoromethyl)pyrimidin-4-yl]oxy}ethyl)pyrimidin-4-yl]-N-(2,6-difluorophenyl)piperidine-1-carboxamide] the value was 14.4 nM; for `CC(O)(COc1ccnc(C(F)(F)F)n1)c1cnc(N)nc1C1CCN(C(=O)Cc2c(F)cccc2F)CC1` (stereo not shown) [Compound D30, 2-(2-Amino-4-{1-[(2,6-difluorophenyl)acetyl]piperidin-4-yl}pyrimidin-5-yl)-1-{[2-(trifluoromethyl)pyrimidin-4-yl]oxy}propan-2-ol], 4.3 nM; for `CC(=O)Nc1ncc(C(C)(O)COc2ccnc(C(F)(F)F)n2)c(C2CCN(C(=O)Nc3c(F)cccc3F)CC2)n1` (stereo not shown) [Compound D31, 4-[2-(Acetylamino)-5-(1-hydroxy-1-methyl-2-{[2-(trifluoromethyl)pyrimidin-4-yl]oxy}ethyl)pyrimidin-4-yl]-N-(2,6-difluorophenyl)piperidine-1-carboxamide], 119 nM.
